# Assay results as given in patent publication US12371464B2, “Polypeptides and uses thereof” (MEDIMMUNE LIMITED, priority 2020, dated 2025).
# Numbered stars: 1 amine (or outer) side, 2 acyl side, 3 side chain; on linkers, the order of the positions; unused ones are H or OH. Bridge positions count the residues as written; N and C are the ends. Square brackets hold non-standard residues; d marks the D form. Side chains are listed from the residue outwards. Peptide text beside a SMILES is read from it. * marks the point of attachment. C20 diacid = O=C(O)CCCCCCCCCCCCCCCCCCC(=O)*; C18 diacid = O=C(O)CCCCCCCCCCCCCCCCC(=O)*; γGlu = O=C(O)[C@H](CCC(=O)[*:2])N[*:1]; αMeF = C[C@](N)(Cc1ccccc1)C(=O)O; Dab = NCC[C@H](N)C(=O)O; AEEA = NCCOCCOCC(=O)O; Aib = CC(C)(N)C(=O)O
# Test: Thioflavin T fibrillation assay
# Type: physicochemical
# Conditions: for Time taken to detect increase in fluorescence intensity: 1 mg/mL in 25 mM sodium acetate buffer pH 4.0, 37° C., 6 days, orbital shaking, >144 h = no increase; for fibril-forming tendency on conjugating pramlintide to a lipid: as seen in Table 7
# Procedure, shortened: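 Peptides at 1 mg/mL in 25 mM sodium acetate pH 4.0 were mixed with ThT (0.25 mM stock) and held 6 days at 37 °C with intermittent orbital shaking at 500–750 rpm. Fluorescence (ex 444/em 480 nm) was read every 30 min, with buffer baseline correction and 5 replicates. Value: mean time to a detectable fluorescence increase.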
SMILES,Time taken to detect increase in fluorescence intensity [h],fibril-forming tendency on conjugating pramlintide to a lipid
"CC[C@H](C)[C@H](NC(=O)[C@@H]1CCCN1C(=O)CNC(=O)[C@H](Cc1ccccc1)NC(=O)[C@H](CC(N)=O)NC(=O)C(C)(C)NC(=O)[C@H](CO)NC(=O)[C@H](CO)NC(=O)[C@H](Cc1c[nH]cn1)NC(=O)[C@@H](NC(=O)[C@H](CC(C)C)NC(=O)[C@H](Cc1ccccc1)NC(=O)[C@H](CC(N)=O)NC(=O)[C@H](C)NC(=O)[C@H](CC(C)C)NC(=O)[C@H](CCCNC(=N)N)NC(=O)[C@H](CCC(N)=O)NC(=O)[C@@H](NC(=O)[C@H](C)NC(=O)[C@@H]1CSSC[C@H](NC(=O)[C@H](CCCCN)NC(=O)[C@@H](N)CCCCNC(=O)CC[C@H](NC(=O)CCCCCCCCCCCCCCCCC(=O)O)C(=O)O)C(=O)N[C@@H](CC(N)=O)C(=O)N[C@@H]([C@@H](C)O)C(=O)N[C@@H](C)C(=O)N[C@@H]([C@@H](C)O)C(=O)N1)[C@@H](C)O)C(C)C)C(=O)N[C@@H](CC(C)C)C(=O)N1CCC[C@H]1C(=O)N1CCC[C@H]1C(=O)N[C@H](C(=O)N[C@@H](Cc1c[nH]cn1)C(=O)N[C@H](C(=O)NCC(=O)N[C@@H](CO)C(=O)N[C@@H](CC(N)=O)C(=O)N[C@H](C(=O)N[C@@H](Cc1ccc(O)cc1)C(N)=O)[C@@H](C)O)C(C)C)[C@@H](C)O [Peptide 40, K(γE-C18diacid)K[CNTATC]ATQRLANFLVHSS(Aib)NFGPILPPTHVGSNTY-amide] (H-K([γGlu-C18 diacid])KCNTATCATQRLANFLVHSS[Aib]NFGPILPPTHVGSNTY-NH2; disulfide 3-8; N-terminus assumed)",>144,
CC[C@H](C)[C@H](NC(=O)[C@@H]1CCCN1C(=O)CNC(=O)[C@H](Cc1ccccc1)NC(=O)[C@H](CC(N)=O)NC(=O)[C@H](CC(N)=O)NC(=O)[C@H](CO)NC(=O)[C@H](CO)NC(=O)[C@H](Cc1c[nH]cn1)NC(=O)[C@@H](NC(=O)[C@H](CC(C)C)NC(=O)[C@H](Cc1ccccc1)NC(=O)[C@H](CC(N)=O)NC(=O)[C@H](C)NC(=O)[C@H](CC(C)C)NC(=O)[C@H](CCCNC(=N)N)NC(=O)[C@H](CCC(N)=O)NC(=O)[C@@H](NC(=O)[C@H](C)NC(=O)[C@@H]1CSSC[C@H](NC(=O)[C@H](CCCCN)NC(=O)COCCOCCNC(=O)COCCOCCNC(=O)CC[C@H](NC(=O)CCCCCCCCCCCCCCCCCCC(=O)O)C(=O)O)C(=O)N[C@@H](CC(N)=O)C(=O)N[C@@H]([C@@H](C)O)C(=O)N[C@@H](C)C(=O)N[C@@H]([C@@H](C)O)C(=O)N1)[C@@H](C)O)C(C)C)C(=O)N[C@@H](CC(C)C)C(=O)N1CCC[C@H]1C(=O)N1CCC[C@H]1C(=O)N[C@H](C(=O)N[C@@H](CC(N)=O)C(=O)N[C@H](C(=O)NCC(=O)N[C@@H](CO)C(=O)N[C@@H](CC(N)=O)C(=O)N[C@H](C(=O)N[C@@H](Cc1ccc(O)cc1)C(N)=O)[C@@H](C)O)C(C)C)[C@@H](C)O [Peptide 113] ({C20 diacid-γGlu-AEEA-AEEA}-KCNTATCATQRLANFLVHSSNNFGPILPPTNVGSNTY-NH2; disulfide 2-7),<5,increases the fibril-forming tendency
"CC[C@H](C)[C@H](NC(=O)[C@@H]1CCCN1C(=O)CNC(=O)[C@](C)(Cc1ccccc1)NC(=O)[C@H](CC(N)=O)NC(=O)[C@H](CC(N)=O)NC(=O)[C@H](CO)NC(=O)[C@H](CO)NC(=O)[C@H](Cc1c[nH]cn1)NC(=O)[C@@H](NC(=O)[C@H](CC(C)C)NC(=O)[C@H](Cc1ccccc1)NC(=O)[C@H](CC(N)=O)NC(=O)[C@H](C)NC(=O)[C@H](CC(C)C)NC(=O)[C@H](CCCNC(=N)N)NC(=O)[C@H](CCC(N)=O)NC(=O)[C@@H](NC(=O)[C@H](C)NC(=O)[C@@H]1CSSC[C@H](NC(=O)[C@@H](N)CCCCNC(=O)CC[C@H](NC(=O)CCCCCCCCCCCCCCCCC(=O)O)C(=O)O)C(=O)N[C@@H](CC(N)=O)C(=O)N[C@@H]([C@@H](C)O)C(=O)N[C@@H](C)C(=O)N[C@@H]([C@@H](C)O)C(=O)N1)[C@@H](C)O)C(C)C)C(=O)N[C@@H](CC(C)C)C(=O)N1CCC[C@H]1C(=O)N1CCC[C@H]1C(=O)N[C@H](C(=O)N[C@@H](CCCNC(=N)N)C(=O)N[C@H](C(=O)NCC(=O)N[C@@H](CO)C(=O)N[C@@H](CC(N)=O)C(=O)N[C@H](C(=O)N[C@@H](Cc1ccc(O)cc1)C(N)=O)[C@@H](C)O)C(C)C)[C@@H](C)O [Peptide 25, K(γE-C18diacid)[CNTATC]ATQRLANFLVHSSNN(αMePhe)GPILPPTRVGSNTY-amide] (H-K([γGlu-C18 diacid])CNTATCATQRLANFLVHSSNN[αMeF]GPILPPTRVGSNTY-NH2; disulfide 2-7; N-terminus assumed)",>144,
"CC[C@H](C)[C@H](NC(=O)[C@H](C)NC(=O)[C@@H]1CCCN1C(=O)[C@H](Cc1ccccc1)NC(=O)[C@H](CC(N)=O)NC(=O)[C@H](CCN)NC(=O)[C@H](CO)NC(=O)[C@H](CO)NC(=O)[C@H](Cc1c[nH]cn1)NC(=O)[C@@H](NC(=O)[C@H](CC(C)C)NC(=O)[C@H](Cc1ccccc1)NC(=O)[C@H](CC(N)=O)NC(=O)[C@H](C)NC(=O)[C@H](CC(C)C)NC(=O)[C@H](CCCNC(=N)N)NC(=O)[C@H](CCC(N)=O)NC(=O)[C@@H](NC(=O)[C@H](C)NC(=O)[C@@H]1CSSC[C@H](NC(=O)[C@@H](N)CCCCNC(=O)CC[C@H](NC(=O)CC[C@H](NC(=O)CCCCCCCCCCCCCCCCC(=O)O)C(=O)O)C(=O)O)C(=O)N[C@@H](CC(N)=O)C(=O)N[C@@H]([C@@H](C)O)C(=O)N[C@@H](C)C(=O)N[C@@H]([C@@H](C)O)C(=O)N1)[C@@H](C)O)C(C)C)C(=O)N[C@@H](CC(C)C)C(=O)N[C@@H](CO)C(=O)N1CCC[C@H]1C(=O)N[C@H](C(=O)N[C@@H](CC(N)=O)C(=O)N[C@H](C(=O)NCC(=O)N[C@@H](CO)C(=O)N[C@@H](CC(N)=O)C(=O)N[C@H](C(=O)N[C@@H](Cc1ccc(O)cc1)C(N)=O)[C@@H](C)O)C(C)C)[C@@H](C)O [Peptide 8, K(γE-γE-C18diacid)[CNTATC]ATQRLANFLVHSS(Dab)NFPAILSPTNVGSNTY-amide] (H-K([γGlu-γGlu-C18 diacid])CNTATCATQRLANFLVHSS[Dab]NFPAILSPTNVGSNTY-NH2; disulfide 2-7; N-terminus assumed)",7,
CC[C@H](C)[C@H](NC(=O)[C@@H]1CCCN1C(=O)CNC(=O)[C@H](Cc1ccccc1)NC(=O)[C@H](CC(N)=O)NC(=O)[C@H](CC(N)=O)NC(=O)[C@H](CO)NC(=O)[C@H](CO)NC(=O)[C@H](Cc1c[nH]cn1)NC(=O)[C@@H](NC(=O)[C@H](CC(C)C)NC(=O)[C@H](Cc1ccccc1)NC(=O)[C@H](CC(N)=O)NC(=O)[C@H](C)NC(=O)[C@H](CC(C)C)NC(=O)[C@H](CCCNC(=N)N)NC(=O)[C@H](CCC(N)=O)NC(=O)[C@@H](NC(=O)[C@H](C)NC(=O)[C@@H]1CSSC[C@H](NC(=O)[C@H](CCCCN)NC(=O)CC[C@H](NC(=O)CCCCCCCCCCCCCCCCC(=O)O)C(=O)O)C(=O)N[C@@H](CC(N)=O)C(=O)N[C@@H]([C@@H](C)O)C(=O)N[C@@H](C)C(=O)N[C@@H]([C@@H](C)O)C(=O)N1)[C@@H](C)O)C(C)C)C(=O)N[C@@H](CC(C)C)C(=O)N1CCC[C@H]1C(=O)N1CCC[C@H]1C(=O)N[C@H](C(=O)N[C@@H](CC(N)=O)C(=O)N[C@H](C(=O)NCC(=O)N[C@@H](CO)C(=O)N[C@@H](CC(N)=O)C(=O)N[C@H](C(=O)N[C@@H](Cc1ccc(O)cc1)C(N)=O)[C@@H](C)O)C(C)C)[C@@H](C)O [Peptide 3] ({C18 diacid-γGlu}-KCNTATCATQRLANFLVHSSNNFGPILPPTNVGSNTY-NH2; disulfide 2-7),<5,increases the fibril-forming tendency
CC[C@H](C)[C@H](NC(=O)[C@@H]1CCCN1C(=O)CNC(=O)[C@H](Cc1ccccc1)NC(=O)[C@H](CC(N)=O)NC(=O)[C@H](CC(N)=O)NC(=O)[C@H](CO)NC(=O)[C@H](CO)NC(=O)[C@H](Cc1c[nH]cn1)NC(=O)[C@@H](NC(=O)[C@H](CC(C)C)NC(=O)[C@H](Cc1ccccc1)NC(=O)[C@H](CC(N)=O)NC(=O)[C@H](C)NC(=O)[C@H](CC(C)C)NC(=O)[C@H](CCCNC(=N)N)NC(=O)[C@H](CCC(N)=O)NC(=O)[C@@H](NC(=O)[C@H](C)NC(=O)[C@@H]1CSSC[C@H](NC(=O)[C@@H](N)CCCCNC(=O)CC[C@H](NC(=O)CCCCCCCCCCCCCCCCC(=O)O)C(=O)O)C(=O)N[C@@H](CC(N)=O)C(=O)N[C@@H]([C@@H](C)O)C(=O)N[C@@H](C)C(=O)N[C@@H]([C@@H](C)O)C(=O)N1)[C@@H](C)O)C(C)C)C(=O)N[C@@H](CC(C)C)C(=O)N1CCC[C@@H]1C(=O)N1CCC[C@H]1C(=O)N[C@H](C(=O)N[C@@H](CC(N)=O)C(=O)N[C@H](C(=O)NCC(=O)N[C@@H](CO)C(=O)N[C@@H](CC(N)=O)C(=O)N[C@H](C(=O)N[C@@H](Cc1ccc(O)cc1)C(N)=O)[C@@H](C)O)C(C)C)[C@@H](C)O [Peptide 104] (H-K([γGlu-C18 diacid])CNTATCATQRLANFLVHSSNNFGPIL[dP]PTNVGSNTY-NH2; disulfide 2-7; N-terminus assumed),<5,
